Experimental data as given in patent publication US7145037B2, “Adamantane derivatives with neuroprotective, antidepressant and anti-ischaemic activities, and process for preparing them” (Rotta Research Laboraturium S.p.A., priority 2003, dated 2006).
Counter-ions that a name gives are not always drawn. Marks after values point to notes of the source that are not given here.

Key:
[1] = tested on: mouse; experiment: Swimming test (Porsolt) in the mouse; type: in vivo
Procedure: Process: The procedure is similar to that described by Porsolt et al. (Arch. Int. Pharmacodyn. 229, p. 327–336 (1977).
Naïve (unconditioned) mice are subjected to forced swimming for 15 minutes in a glass cylinder containing 20 cm of water at a temperature of 25° C. The period of immobility from the third to the sixth minute (inclusive) and the time to reach total immobility from the sixth to the fifteenth minute were measured. Total immobility is defined as the latent time required in order for the animal to remain immobile for at least 30 seconds. The compounds were administered orally 60 minutes before the test.

[2] = tested on: rat striatum slices; experiment: Basal release of [3H]dopamine from rat striatum slices in perfusion; type: cell-based; conditions: inactive = at the concentration in parentheses
Procedure: (§1) The animals were sacrificed and the brains rapidly removed from the brain case and immediately transferred at 4° C. into artificial cerebrospinal fluid (aCSF) aerated with a gas mixture composed of 95% oxygen and 5% carbon dioxide. The brains were then sectioned at a temperature of 4° C. and the encephalic areas of interest (hippocampus and corpora striata) removed and immersed in the solution mentioned above.
(§2) Cerebral slices 400 μm thick were then prepared using a McIllwain “chopper”. The hippocampus slices were incubated with 0.08 μM of [^3H] noradrenalin and the striatum slices with 0.01 μM of [^3H] dopamine and/or with 0.09 μM of [^3H] choline at a temperature of 37° C. for 20 minutes. The slices labelled with [^3H] noradrenalin were incubated in the presence of 0.1 μM 6-nitroquipazine and 0.1 μM GBR 12909, which are selective inhibitors of the uptake of serotonin and dopamine, respectively, in order to prevent possible false labelling of serotoninergic and dopaminergic synaptic endings.
(§3) For the same reasons, the slices labelled with [^3H] dopamine were incubated in the presence of 0.1 μM 6-nitroquipazine and 0.1 μM nisoxetine, which are selective inhibitors of serotonin and noradrenalin uptake. […]
(§4) At the end of the experiment, the collected samples and the perfused slices (dissolved in toluene) were subjected to counting of the radioactivity present in each fraction and/or slice using a scintillator for liquid samples. The fractional release of tritiated neurotransmitters was calculated as the amount of radioactivity present in each fraction divided by the total radioactivity present in the slice at the moment at which it was collected. The ratios between the fractional release at a given moment of the perfusion and the fractional release in the first collected fraction were thus calculated for each slice. The effects of the compounds were expressed as a percentage of increase of the release of the neurotransmitters studied relative to the control slices perfused in the absence of drugs (Table 2).

[3] = tested on: rat hippocampus slices; experiment: Basal release of [3H]noradrenalin from rat hippocampus slices in perfusion; type: cell-based
Procedure: as §1, §2, §3, §4

[4] = tested on: rat parieto-occipital cortex slices; experiment: Release of [3H]D-aspartate evoked by 30 mM KCl under hypoglycaemic conditions in rat parieto-occipital slices; type: cell-based; conditions: read-out: IC50 for antagonizing the hypoglycaemia-induced increase in the release of [3H]D-aspartate
Procedure: This in vitro experimental model was designed to mimic a condition of […] and is a modification of the model reported by Zablocka B. and Domanska-Janik K., [NeuroReport 6, 85–88 (1994)].
Rat parieto-occipital cortex is removed and sectioned into 400 μm coronal slices. The cortical slices are incubated at 37° C. for 30 minutes with [^3H]D-aspartate and then, after washing for 45 minutes, stimulated for 5 minutes with a hypertonic potassium solution (30 mM). Once the basal conditions have been restored, the slices are perfused with a glucose-free medium for 20 minutes. The test compounds are at this point added to a standard medium containing glucose and perfused until the end of the experiment. 10 minutes from the end of the hypoglycaemic period, a further hypertonic potassium stimulation depolarizes the neuronal membrane, causing an approximately 75% increase in the release of [^3H]D-aspartate evoked under control conditions.

[5] = biological target: T1, NMDA receptor; experiment: Binding of [3H]MK-801 to rat cortical synaptosomial membranes; conditions: H3-MK-801, 45 min at 23° C., read-out: IC50, concentration displacing 50% of the ligand (MK-801) from the receptor
T1 construct: IC50, concentration displacing 50% of the ligand (MK-801) from the receptor; other: rat cortical membranes, H3-MK-801

[6] = tested on: rat striatum slices; experiment: Basal release of [3H]acetylcholine from rat striatum slices in perfusion; type: cell-based; conditions: inactive = at the concentration in parentheses
Procedure: as §1, §2, §3, §4

[7] = tested on: NMDA receptor; experiment: Release of [3H]noradrenalin stimulated by NMDA in rat hippocampus slices; type: cell-based; conditions: aCSF lacking Mg2+, 100 μM NMDA, read-out: IC50 for antagonizing the effect of 100 μM NMDA on [3H]noradrenalin release
Procedure: The preparation of the slices is analogous to that described previously. The slices were perfused in the presence of [^3H] noradrenalin with an aCSF lacking in Mg^2+ ions. After perfusion for 45 minutes to equilibrate the system, 7 fractions of 5 minutes each were collected. The test compounds were added to the perfusion liquid 10 minutes before starting the collection of the fractions, while 100 μM NMDA was added only to fraction 4, from the fifteenth minute after the start of collection.
At the end of the experiment, the radioactivity present was counted as described previously. For each sample, the percentage ratio between the fractional release in fraction 4 in the presence of NMDA and the fractional release in the first collected fraction was determined. The activity of the test drugs was expressed as a mean percentage value of the number of experiments performed relative to the percentage increase in the release of [^3H] noradrenalin into the NMDA-stimulated control chambers in the absence of antagonists.

[8] = tested on: mouse; experiment: "Tail pinching" test in the mouse; type: in vivo; conditions: for Immobility time: 5 minutes; for % effect vs control: immobility time; for ED50: oral, calculated ED50, read-out: ED50 (reduction of immobility time)
Procedure: Process: The procedure is similar to that described by Steru et al. [Psychopharmacol. 85, p. 367-(1985)]. The animals are suspended by the tail 75 cm above the bench surface. The duration of immobility is measured over a period of 5 minutes: the animals are considered as being immobile only when they hang passively and completely motionless. The compounds were administered orally 30 minutes before the test.

[9] = biological target: NO-synthetase (NOS) (Oryctolagus cuniculus, UniProt G1SGE1); experiment: Inhibition of NO (nitrite) formation in rabbit articular chondrocytes stimulated with IL-1β; type: cell-based; conditions: for IC50: nitrite formation, IL-1β 1 ng/ml, 48 hours, 95% confidence limits in parentheses, read-out: Rabbit articular chondrocytes % inhibition (IC50 × 10^−6M)
Chain of NO-synthetase (NOS) (G1SGE1 entry or part of it): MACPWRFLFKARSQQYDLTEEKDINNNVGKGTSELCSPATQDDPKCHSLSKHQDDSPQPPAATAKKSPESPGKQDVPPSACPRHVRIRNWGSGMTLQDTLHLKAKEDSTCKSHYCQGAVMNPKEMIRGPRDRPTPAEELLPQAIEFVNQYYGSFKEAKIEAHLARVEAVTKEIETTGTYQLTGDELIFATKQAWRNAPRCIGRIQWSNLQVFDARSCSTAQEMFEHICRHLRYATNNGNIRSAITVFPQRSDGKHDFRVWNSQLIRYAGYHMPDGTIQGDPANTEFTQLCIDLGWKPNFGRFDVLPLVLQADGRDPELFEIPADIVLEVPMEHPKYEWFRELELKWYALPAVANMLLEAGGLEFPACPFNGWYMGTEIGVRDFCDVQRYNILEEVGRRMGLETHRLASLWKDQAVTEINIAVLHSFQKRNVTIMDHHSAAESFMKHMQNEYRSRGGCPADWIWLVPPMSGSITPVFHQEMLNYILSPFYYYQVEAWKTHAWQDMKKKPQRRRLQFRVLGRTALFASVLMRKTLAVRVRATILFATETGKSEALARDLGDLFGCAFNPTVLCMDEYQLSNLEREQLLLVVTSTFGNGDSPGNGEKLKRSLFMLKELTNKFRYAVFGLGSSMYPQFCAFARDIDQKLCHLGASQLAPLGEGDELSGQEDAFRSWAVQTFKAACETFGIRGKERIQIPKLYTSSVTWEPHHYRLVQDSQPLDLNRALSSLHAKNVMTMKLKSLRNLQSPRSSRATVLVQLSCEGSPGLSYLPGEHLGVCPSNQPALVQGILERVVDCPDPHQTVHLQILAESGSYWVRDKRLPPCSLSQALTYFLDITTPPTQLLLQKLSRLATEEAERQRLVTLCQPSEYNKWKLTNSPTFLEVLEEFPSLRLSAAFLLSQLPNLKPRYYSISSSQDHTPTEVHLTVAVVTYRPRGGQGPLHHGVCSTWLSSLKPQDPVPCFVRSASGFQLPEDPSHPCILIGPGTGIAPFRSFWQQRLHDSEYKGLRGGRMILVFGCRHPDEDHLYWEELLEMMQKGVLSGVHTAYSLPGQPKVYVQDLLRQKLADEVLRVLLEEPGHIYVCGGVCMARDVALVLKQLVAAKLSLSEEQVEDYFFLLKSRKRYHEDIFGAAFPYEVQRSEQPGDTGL
Procedure: a) The inhibitory activity on the formation of NO, measured as NO2^− (nitrite), was studied in vitro on culture media of rabbit articular chondrocytes stimulated with the cytokine IL-1β (1 ng/ml) for 48 hours. For the preparation of the chondrocytes, the method described by Berenbaum et al. […] The cells were maintained under these conditions to the point of confluency (about 15 days), the medium being changed every 3 days. […] The stimulation lasted for 48 hours at 37° C. (incubation under air-7% CO2). Next, an assay of the nitrites was performed on the cell supernatant according to the method described by Green et al. [Anal. Biochem. 126, 131–138 (1982)].

[10] = 3 mg/kg orally 60 minutes before the test
[11] = 10 mg/kg orally 60 minutes before the test
[12] = 30 mg/kg orally 60 minutes before the test
[13] = 1 mg/kg orally 30 minutes before the test
[14] = 10 mg/kg orally 30 minutes before the test
[15] = 0.1 mg/kg orally 60 minutes before the test
[16] = 1 mg/kg orally 60 minutes before the test

CC(=N)NCCC12CC3CC(CC(C3)C1)C2 (as salt: HCl) [Compound 1]
melting point: 243 °C

N=C(N)NCCC12CC3CC(CC(C3)C1)C2 (as salt: HCl) [Compound 3]
melting point: 246 °C

CN(C)CCC=C1c2ccccc2CCc2ccccc21 [Amitryptiline, reference compound]
Immobility in sec. (3–6 mins) [1, 10]: 54.9 s | Latent time vs immobility in sec. (6–15 mins) [1, 10]: 477.5 s | Immobility in sec. (3–6 mins) [1, 11]: 56.0 s | Latent time vs immobility in sec. (6–15 mins) [1, 11]: 461.0 s | Immobility in sec. (3–6 mins) [1, 12]: 42.0 s | Latent time vs immobility in sec. (6–15 mins) [1, 12]: 607.8** sec.

CC(=N)NCCC12CC3CC(C)(CC(C)(C3)C1)C2 [Compound 2, N-[2-(3,5-dimethyl-1-adamantyl)ethyl]-acetamidine]
Basal release of [3H]DA on striatum slices: concentration increasing basal release by 100% [2]: 2 µM | Basal release of [3H]NE on hippocampus slices: concentration increasing basal release by 100% [3]: 6 µM | IC50 [4]: 2.5 µM | IC50 [5]: ~40 µM | Basal release of [3H]Ach on striatum slices: concentration increasing basal release by 100% [6]: inactive | IC50 [7]: 0.8 µM | Immobility time ([8]; 0.3 mg/kg orally 30 minutes before the test): 56.6 s | % effect vs control ([8]; 0.3 mg/kg orally): 25.7% | Immobility time [8, 13]: 48.0 s | % effect vs control ([8]; 1 mg/kg orally): 37.0% | Immobility time ([8]; 3 mg/kg orally 30 minutes before the test): 42.6 s | % effect vs control ([8]; 3 mg/kg orally): 44.1% | Immobility time [8, 14]: 35.1 s | % effect vs control ([8]; 10 mg/kg orally): 53.9% | ED50 [8]: 6 mg/kg

CC12CC3CC(C)(C1)CC(CCNC(=N)N)(C3)C2 [Compound 4, N-[2-(3,5-dimethyl-1-adamantyl)ethyl]guanidine]
Basal release of [3H]DA on striatum slices: concentration increasing basal release by 100% [2]: 8 µM | Basal release of [3H]NE on hippocampus slices: concentration increasing basal release by 100% [3]: 15 µM | Immobility in sec. (3–6 mins) [1, 15]: 39.3* sec. | Latent time vs immobility in sec. (6–15 mins) [1, 15]: 353.3 s | Immobility in sec. (3–6 mins) [1, 16]: 39.8* sec. | Latent time vs immobility in sec. (6–15 mins) [1, 16]: 450.8* sec. | Immobility in sec. (3–6 mins) [1, 11]: 42.4* sec. | Latent time vs immobility in sec. (6–15 mins) [1, 11]: 495.8* sec. | IC50 [4]: 0.8 µM | IC50 [5]: ~40 µM | Basal release of [3H]Ach on striatum slices: concentration increasing basal release by 100% [6]: 20 µM | IC50 [7]: 0.5 µM

N=C(NCCC12CC3CC(CC(C3)C1)C2)N[N+](=O)[O-] [Compound 5]
melting point: 260 °C

CC12CC3CC(C)(C1)CC(CCNC(=N)N[N+](=O)[O-])(C3)C2 [Compound 6, N-[2-(3,5-dimethyl-1-adamantyl)ethyl]-nitroguanidine]
IC50 [9]: 80.4 µM

CC12CC3CC(C)(C1)CC(CCNC(=N)C1CC1)(C3)C2 [Compound 7]
melting point: 96 °C

COC(=O)[C@@H](N)CCCNC(=N)N[N+](=O)[O-] [L-NAME]
IC50 [9]: 340 µM

CC12CC3CC(C)(C1)CC(N)(C3)C2 [Memantine, reference compound]
Basal release of [3H]DA on striatum slices: concentration increasing basal release by 100% [2]: inactive (30 μM) | Basal release of [3H]NE on hippocampus slices: concentration increasing basal release by 100% [3]: 130 µM | Inhibition of the production of nitrite ([9]; up to the maximum concentration tested (3×10^−4M)): entirely inactive | IC50 [4]: 7.5 µM | IC50 [5]: 80 µM | Basal release of [3H]Ach on striatum slices: concentration increasing basal release by 100% [6]: inactive (100 μM) | IC50 [7]: 1.6 µM | Immobility time ([8]; 0.1 mg/kg orally 30 minutes before the test): 49.9 s | % effect vs control ([8]; 0.1 mg/kg orally): 36.8% | Immobility time [8, 13]: 48.9 s | % effect vs control ([8]; 1 mg/kg orally): 38.0% | Immobility time [8, 14]: 40.1 s | % effect vs control ([8]; 10 mg/kg orally): 49.2% | ED50 [8]: 24.9 mg/kg
